Reference: patent publication US5475018A, “1,5-diphenyl pyrazole compounds for treatment of inflammation” (G. D. Searle & Co., priority 1993, dated 1995)

Columns and labels:
[1] = Rat Carrageenan-induced Analgesia Test; format: in vivo, Male Sprague-Dawley rats; details: oral, inhibition of hyperalgesic foot withdrawal, 3 h after carrageenan
Description: (§1) The carrageenan foot edema test was performed with materials, reagents and procedures essentially as described by Winter et al (Proc. Soc. Exp. Biol. Med., 111, 544 (1962)). Male Sprague-Dawley rats were selected in each group so that the average body weight was as close as possible. Rats were fasted with free access to water for over sixteen hours prior to the test. The rats were dosed orally (1 mL) with compounds suspended in vehicle containing 0.5% methylcellulose and 0.025% surfactant, or with vehicle alone. One hour later a subplantar injection of 0.1 mL of 1% solution of carrageenan/sterile 0.9% saline was administered and the volume of the injected foot was measured with a displacement plethysmometer connected to a pressure transducer with a digital indicator. Three hours after the injection of the carrageenan, the volume of the foot was again measured. The average foot swelling in a group of drug-treated animals was compared with that of a group of placebo-treated animals and the percentage inhibition of edema was determined (Otterness and Bliven, Laboratory Models for Testing NSAIDs, in Non-steroidal Anti-Inflammatory Drugs, (J. Lombardino, ed. 1985)).
The analgesia test using rat carrageenan was performed with materials, reagents and procedures essentially as described by Hargreaves et al (Pain, 32, 77 (1988)). […] The time until the rat withdraws its foot was then measured. […]

[2] = Rat Carrageenan Foot Pad Edema Test; format: in vivo, Male Sprague-Dawley rats; details: oral, dosed 1 h before carrageenan, foot volume 3 h after carrageenan, vs placebo
Description: as §1

Structure (SMILES): CS(=O)(=O)c1ccc(-n2nc(C(F)(F)F)cc2-c2ccc(F)cc2)cc1 [Example 1, 5-(4-Fluorophenyl)-1-[4-(methylsulfonyl)phenyl]-3-(trifluoromethyl)pyrazole]
- ANALGESIA % Inhibition @ 20 mg/kg body weight [1]: 37%
- RAT PAW EDEMA % Inhibition @ 10 mg/kg body weight [2]: 38%
